According to patent US6406720B1, “Cosmetic containing plant extracts” (Laboratoires Serobiologiques (Societe Anonyme), priority 1997, dated 2002):

Test system: tyrosinase
Assay: anti-tyrosinase action (oxidation of L-DOPA to DOPACHROME, Mason's method)
Assay type: biochemical
Conditions: concentration which halves the initial speed of DOPACROME formation
Experimental: To determine the de-pigmenting power of the extracts, their tyrosinase action was evaluated by measuring the product of oxidising L-DOPA to DOPACHROME (by HS Mason's method, 1948), carrying out the following stages: […]
mixing tyrosinase with L-DOPA in the phosphate buffer with an automatic pipette recording the optical density at 475 nm for 2 minutes, then calculating the initial speed of the enzyme reaction and determining the C150 (concentration which halves the initial speed of DOPACROME formation).

C150 anti-tyrosinase effect in %: 0.025%
Compound: Oc1ccc(O)cc1 [Hydroquinone]
